Entries after “also recorded” stand apart in the source; their conditions may differ.
Tested on: intestinal damage caused by protein-energy malnutrition
Assay: Intestinal damage caused by protein-energy malnutrition in pigs
Type: in vivo, pig
Settings: for Ileal mucosa histology (electron transmission microscopy) / Jejunal mucosa histology (electron transmission microscopy): malnourished pigs fed ENSURE PLUS plus supplement; for Alkaline phosphatase (AP) activity in jejunum: versus caseinate supplement; for T helper (CD4+) subpopulation of intra-epithelial lymphocytes in jejunum: versus control group
Description: A study was conducted to evaluate the potential effects of N-acetyl-L-glutamine versus free glutamine on intestinal damage caused by protein-energy malnutrition in pigs. In this study, 5-week-old domestic pigs, were provided by a certified farm. The pigs were randomly assigned to one of two groups. In one group 3 pigs were freely fed with ENSURE PLUS® (Ross Products Division, Abbott Laboratories) for 30 days. In the second group, 9 pigs were also fed with ENSURE PLUS®, but at only 20% of the daily intake of the first group. This second group was divided into 3 subgroups with […] each to receive a daily supplement of either calcium caseinate, glutamine or N-acetyl-L-glutamine. Daily average energy and protein supplied to the control group ranged from 3300 kcal, 138 g protein at the beginning of the study to 4500 kcal, 187 g protein at the end of the study. In the second group, supplements of caseinate, glutamine and N-acetyl-L-glutamine provided an additional 1.32 grams nitrogen equivalents per day (basically, 6.89 grams L-glutamine, or 8.87 grams N-acetyl-L-glutamine or 8.42 grams caseinate protein are supplemented per day). After 30 days, all pigs were deprived of food for 16 hours. The animals were then weighed, sedated, anesthetized and sacrificed through terminal bleeding by jugular puncture.
The entire small intestine was quickly removed. The 60 cm segment of the small intestine from the ligament of Treitz was considered proximal jejunum. A 5 cm long segment from the ligament of Treitz was selected for histological analysis of jejunum. The 60 cm length closest to the ileo-cecal valve was considered the distal ileum. A 5 cm segment from the ileo-cecal valve was selected for histological analysis of the ileum. The intestine segments were rinsed thoroughly with ice-cold saline solution, opened length-wise and blotted dry. The mucosa was scraped off using a glass slide onto a cold Petri dish, weighed, immediately frozen under liquid nitrogen and stored at −80° C. until biochemical analysis.
Jejunal and ileal mucosa were homogenized in 10 mM phosphate buffer (pH 7.4) using a mechanical Potter homogenizer, for protein and DNA assays. For the determination of the enzymatic markers of injury, functionality and antioxidant defense system, the mucosal homogenates were centrifuged at 3000 g for 10 min. and the resulting supernatants were used for enzymatic assays. For the determination of total glutathione, the mucosa was homogenized in 5% trichloroacetic acid and centrifuged at 8000 g for 5 min.
Biochemical analysis and immunological analysis were performed on the specimens. Concentrations of intestinal mucosa protein and DNA were determined using the Bradford method (Analytical Biochemistry, Volume 72, pages 248-254, 1976) and the method of Labarca and Paigen (Analytical Biochemistry, Volume 102 (2), pages 344-352, 1980), respectively. The degree of intestinal damage caused by malnutrition was evaluated by measuring alkaline phosphatase activity using the method of Goldstein (R. Goldstein, T. Klein, S. Freier and J. Menczel. American Journal of Clinical Nutrition 24: 1224-1231, 1970).
Glutathione reductase activity was evaluated by the method of Carlberg and Mannervik (I. Carlberg and B. Mannervik, Methods in Enzymology, Volume 113, pp 484-490, 1985). Glutathione transferase activity was measured using the method of Habig, et al. (W. H. Habig, M. J. Pabst and W. B. Jakoby, Journal of Biological Chemistry. […]). Glutathione peroxidase activity was assayed by the method of Flohe and Gunzler (L. Flohe and W. A. Gunzler, Methods in Enzymology, Volume 105, pp 114-121, 1984), and the non-protein sulfhydryl content (reported as reduced glutathione equivalents) was determined by the method of Anderson (M. E. Anderson, Methods in Enzymology, 133: 548-554, 1985). […]

SMILES	Ileal mucosa histology (electron transmission microscopy) (30 days)	Jejunal mucosa histology (electron transmission microscopy) (30 days)	Prevention of biochemical and immunological changes induced by malnutrition in the small intestine (malnourished pigs, 30 days)	Alkaline phosphatase (AP) activity in jejunum (malnourished pigs, 30 days)	Total number of peyer's patch lymphocytes in ileum (malnourished pigs, versus N-acetyl-glutamine-supplemented or control groups)	T helper (CD4+) subpopulation of intra-epithelial lymphocytes in jejunum (malnourished pigs)	Prevention of overt signs of inflammation in the epithelial lining of the gastrointestinal tract (electron transmission micrographs, malnourished pigs)	Glutathione transferase activity in small intestine (malnourished pigs, 30 days)	Number of CD1+ intra-epithelial lymphocytes in jejunum (malnourished pigs, 30 days)	Intestinal contents of protein (jejunum and ileum) and DNA (ileum) (malnourished pigs, 30 days, versus caseinate or glutamine supplement)	Amount of GSH in the intestinal mucosa (malnourished pigs, 30 days, versus caseinate or glutamine, did not reach significance)	Total number of peyer's patch lymphocytes in jejunum (malnourished pigs, versus caseinate- or glutamine-supplemented groups)
NC(=O)CC[C@H](N)C(=O)O [Glutamine, glutamine]	displayed loss of microvilli, wide intercellular spaces, and intense lymphocytes infiltration	displayed shortened microvilli, expanded intercellular spaces, and irregular lobulated nucleus	no clear effect	tended to have higher AP activity	significantly lower	significantly higher						
CC(=O)N[C@@H](CCC(N)=O)C(=O)O [N-acetyl-L-glutamine]	less affected by protein-energy malnutrition	less affected by protein-energy malnutrition	performed better than the glutamine or caseinate supplemented groups; also recorded: positive effect	tended to have higher AP activity		significantly higher	more effective than glutamine	less affected by the malnutrition process	significantly higher than in the rest of the groups	tended to be higher	tended to be slightly higher	tendency of the total number of peyer's patch lymphocytes to be higher
